Here are results for 49 molecules from patent US12398111B2, “Triazine compounds and pharmaceutical use thereof” (Japan Tobacco Inc., priority 2014, dated 2025).

The structures appear in SMILES notation.

One test addresses T1, human mPGES-1 (Homo sapiens, UniProt O14684).
T1 construct: made in house; host or cells: FreeStyle CHO-S cells (Chinese hamster ovary), transient transfection with pcDNA3.1(+)/human mPGES-1; microsome fraction used
T1 sequence (O14684 1-152): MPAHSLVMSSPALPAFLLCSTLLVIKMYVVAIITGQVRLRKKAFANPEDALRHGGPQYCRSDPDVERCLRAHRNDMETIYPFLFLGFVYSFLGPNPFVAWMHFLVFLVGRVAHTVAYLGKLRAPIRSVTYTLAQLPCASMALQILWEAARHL
The test is described as follows: Evaluation of human mPGES-1 enzyme inhibitory activity (PGE2 measured by HTRF, microsome fraction of CHO-S cells expressing human mPGES-1). Format: biochemical. Conditions: IC50 value; microsome fraction of CHO-S cells expressing human mPGES-1, PGE2 by HTRF. The method, then: That is, the amount of PGE2 produced by human mPGES-1 in the presence of a test article was measured by the HTRF (homogeneous time resolved fluorescence) method, based on which the human mPGES-1 enzyme inhibitory activity of the test article was determined.
1) Preparation of Human mPGES-1 Expressing Cell Microsome Fraction
A DNA fragment containing human mPGES-1, which is added with a BamHI recognition cleavage sequence immediately before the translation initiation codon and an EcoRI recognition cleavage sequence immediately after the translation termination codon was amplified by the PCR (Polymerase Chain Reaction) method using a human mPGES-1 expression plasmid DNA (pME-18S/iPGES-1) prepared in-house as a template. The purified DNA fragment was digested with BamHI and EcoRI, and ligated to pcDNA3.1(+) (Invitrogen, model number V790-20), similarly digested with BamHI and EcoRI, by using a DNA Ligation kit ver.2.1 (Takara Bio, model number 6022). The human mPGES-1 expression plasmid DNA was isolated from Escherichia coli DH5a (TOYOBO, model number DNA-903) transformed with the obtained ligation product. The base sequence of human mPGES-1 cloned to a vector was determined by the Dye Terminator method by using BigDye Terminator v3.1 Cycle Sequencing Kit (Applied Biosystems, #4337455).
Human mPGES-1 expression plasmid DNA was transfected into Chinese hamster ovary-derived cells (FreeStyle CHO-S Cell, Invitrogen, #R800-07) by using a transgene reagent (FreeStyle MAX Reagent (Invitrogen, #16447-100)), and cultured with shaking (8% CO2, 37° C.) in a medium containing 8 mmol/L L-glutamine (GIBCO FreeStyle CHO Expression Medium, Invitrogen, #12651-022) for 48 hr.
The CHO-S cells were suspended in Homogenate Buffer (100 mmol/L potassium phosphate (pH 7.4), 250 mmol/L Sucrose, 100 mmol/L EDTA, complete EDTA free (Roche, #1873580)). Using an ultrasonic disruptor UD-201 (Tomy Seiko), the suspended cells were disrupted at output:3, duty cycle:50 for 30 seconds. The precipitate was removed by centrifugation (1,000×g, 5 min, 4° C.), is and the supernatant was centrifuged (5,000×g, 10 min, 4° C.). The supernatant was further centrifuged (105,000×g, 60 min, 4° C.). The obtained precipitate was suspended in Resuspension Buffer (100 mmol/L potassium phosphate (pH 7.4), 250 mmol/L sucrose, 100 mmol/L EDTA, 10% glycerol) to give a microsome fraction.
The protein concentration of the microsome fraction was measured by the Bradford method (Protein Assay Kit, Bio-Rad). The microsome fraction was rapidly frozen in liquid nitrogen and preserved at −80° C. Human mPGES-1 in the microsome fraction was detected by Western Blot using rabbit anti-mPGES-1 polyclonal antibody (ThermoFisher Scientific, #PA1-10264).
2) Evaluation of Human mPGES-1 Enzyme Inhibitory Activity
A test article solution diluted with 0.1 mol/L potassium phosphate, pH 7.4 (hereinafter to be referred to as KPB) or DMSO (Nacalai Tesque, #13407-45) was added at 5 μL/well to 96 well V-bottom plate (Corning, #3363). The final DMSO concentration during the reaction was set to 2% (v/v). Furthermore, a microsome fraction of CHO-S cells expressing human mPGES-1, which was diluted with reduced GSH (12.5 mmol/L KPB solution, SIGMA, #G6529-25G) such that the protein concentration was 5 μg/mL, was added at 20 μL/well. The amount of the microsome fraction used is the amount of microsome fraction within a range where the amount of PGE2 produced under the reaction conditions shown below and the amount of microsome fraction used show linearity. To the blank was added reduced GSH (12.5 mmol/L KPB solution) at 20 μL/well.
On to `Cc1cccc(COc2cccc(C(F)(F)F)c2-c2nc(O)nc(-c3ccc(C#Cc4ccccc4F)cc3)n2)n1` [Example 2-107], for which the IC50 (in general, the midpoint of a concentration-inhibition curve) was determined as 3.8 nM. In other words, the single-digit nanomolar range.

On to `CCOc1cccc(Cl)c1-c1nc(O)nc(-c2ccc(C(F)(F)F)cc2)n1` [Example 2-17], for which the IC50 was 39 nM.

As to `CC1(C)CCN(Cc2ccc(Cl)c(-c3nc(O)nc(-c4ccccc4)n3)c2)C1=O` [Example 1-240], inhibition was half-maximal at 428 nM (IC50).

In the case of `CC(C)(C)COc1ccc(-c2nc(O)nc(-c3cc(CCC(=O)NC(C)(C)C)ccc3Cl)n2)cc1` [Example 1-217], the IC50 came to 126 nM. This IC50 lies about 3.4-fold lower than the previous one.

`CCO[C@](C)(C(=O)N(C)Cc1ccc(Cl)c(-c2nc(O)nc(-c3ccccc3)n2)c1)C(F)(F)F` [Example 1-252] returned an IC50 of 511 nM.

In turn, `CO[C@](C)(C(=O)NCc1ccc(Cl)c(-c2nc(O)nc(-c3ccc(C(F)(F)F)c(C)c3)n2)c1)C(F)(F)F` [Example 1-148] came in with an IC50 of 1.7 nM.

Consider `CN(Cc1ccc(Cl)c(-c2nc(O)nc(-c3ccccc3)n2)c1)C(=O)C1CCCC1` [Example 1-228], for which the IC50 came to 672 nM.

As for `CCCc1cccc(-c2nc(O)nc(-c3cc(CNC(=O)C(C)(C)C(F)(F)F)ccc3Cl)n2)c1` [Example 1-102], inhibition was half-maximal at 0.9 nM (IC50). Against the preceding molecule, the IC50 is about 750-fold lower.

As to `Cc1cc(-c2nc(O)nc(-c3cc(CNC(=O)C(C)(C)C(F)(F)F)ccc3Cl)n2)ccc1C(F)(F)F` [Example 1-147], the IC50 turned out to be 0.8 nM.

`COc1ccc(-c2nc(O)nc(-c3cc(CNC(=O)C(C)(C)C(F)(F)F)ccc3Cl)n2)cc1` [Example 1-139] had an IC50 of 0.6 nM.

Regarding `CO[C@@](C)(C(=O)NCc1ccc(Cl)c(-c2nc(O)nc(-c3ccccc3)n2)c1)C(F)(F)F` [Example 1-89], the IC50 worked out at 0.9 nM.

In turn, `CCOC(=O)NCc1ccc(Cl)c(-c2nc(O)nc(-c3ccc(CC(C)C)cc3)n2)c1C` [Example 3-15] showed an IC50 of 5.1 nM.

`Cc1c(CNC(=O)C(C)(C)C(F)(F)F)ccc(Cl)c1-c1nc(O)nc(-c2ccc(CC(C)C)cc2)n1` [Example 3-14]: it took 2 nM to reach half-maximal inhibition (IC50).

Regarding `CC(C)Oc1cccc(-c2nc(O)nc(-c3cc(CNC(=O)C(C)(C)C(F)(F)F)ccc3Cl)n2)c1` [Example 1-91], the IC50 worked out at 0.4 nM. This IC50 is about 5-fold lower than that of the molecule before.

`Cc1ccc(Cl)cc1-c1nc(O)nc(-c2ccc(C(F)(F)F)cc2)n1` [Example 1-3]: the half-inhibitory concentration (IC50) is 164 nM.

`CC(C)(C)COc1ccc(-c2nc(O)nc(-c3c(Cl)cccc3OCc3ccccn3)n2)cc1` [Example 2-62] yielded a 50% inhibitory concentration (IC50) of 9.3 nM.

Turning to `Cc1cccc(COc2cccc(C(F)(F)F)c2-c2nc(O)nc(-c3ccc(C#Cc4ccccc4Cl)cc3)n2)n1` [Example 2-108], the IC50 is 6.4 nM.

Turning to `CCO[C@@](C)(C(=O)N(C)Cc1ccc(Cl)c(-c2nc(O)nc(-c3ccccc3)n2)c1)C(F)(F)F` [Example 1-253], the half-maximal inhibitory concentration (IC50) is 791 nM.

Molecule `Cc1cccc(C)c1-c1nc(O)nc(-c2ccc(O[C@H](C)c3ccccc3)cc2)n1` [Example 2-44] yielded an IC50 of 563 nM.

`NC(=O)c1ccc(Cl)c(-c2nc(O)nc(-c3ccc(OCC4CC4)cc3)n2)c1` [Example 1-193] displayed an IC50 of 8700 nM. This IC50 lies about 15-fold higher than the previous one.

With `COc1cccc(Cl)c1-c1nc(O)nc(-c2ccc(C(F)(F)F)cc2)n1` [Example 2-4], half-maximal inhibition (IC50) was put at 66 nM. This IC50 is about 130-fold lower than that of the molecule before.

`CO[C@](C)(C(=O)N(C)Cc1ccc(Cl)c(-c2nc(O)nc(-c3ccccc3)n2)c1)C(F)(F)F` [Example 1-242] registered an IC50 of 82 nM.

As to `CC(O)c1ccc(Cl)c(-c2nc(O)nc(-c3ccc(C(F)(F)F)cc3)n2)c1` (stereo not shown) [Example 1-18], the IC50 was determined as 114 nM.

As for `CCOc1ccc(-c2nc(O)nc(-c3cc(CNC(=O)C(C)(C)C(F)(F)F)ccc3Cl)n2)cc1` [Example 1-132], the IC50 came to 0.3 nM.

For the molecule `COC(C)(C)C(=O)NCc1ccc(Cl)c(-c2nc(O)nc(-c3ccccc3)n2)c1` [Example 1-53], it took 4.5 nM to reach half-maximal inhibition (IC50).

As for `Cc1c(CO)ccc(Cl)c1-c1nc(O)nc(-c2ccc(C(F)(F)F)cc2)n1` [Example 3-6], the IC50 is 56 nM.

In the case of `Cc1cccc(C)c1-c1nc(O)nc(-c2ccc(OCC3CCCCC3)cc2)n1` [Example 2-37], the IC50 was determined as 41 nM.

Take `CCC1(CC)CN(Cc2ccc(Cl)c(-c3nc(O)nc(-c4ccccc4)n3)c2)C1=O` [Example 1-251]: the IC50 was found to be 18 nM.

Molecule `CC(C)(C)COc1ccc(-c2nc(O)nc(-c3cc(CC(C)(C)O)ccc3Cl)n2)cc1` [Example 1-214] yielded an IC50 of 24 nM. This IC50 and that of the molecule before are within 1.5-fold of each other.

On to `Cc1ccc(CO)cc1-c1nc(O)nc(-c2ccc(C(F)(F)F)cc2)n1` [Example 1-45], for which the IC50 came out at 138 nM.

In turn, `Cc1cccc(C)c1-c1nc(O)nc(-c2ccc(C(F)(F)F)cc2)n1` [Example 2-1] yielded an IC50 of 283 nM.

With `CC(C)(C)OC(=O)NCc1ccc(Cl)c(-c2nc(O)nc(-c3ccc(C(F)(F)F)cc3)n2)c1` [Example 1-15], half-maximal inhibition (IC50) required 7.4 nM.

`Cc1cccc(C#Cc2ccc(-c3nc(O)nc(-c4c(OCc5ccccn5)cccc4C(F)(F)F)n3)cc2)c1` [Example 2-101] gave an IC50 of 6.5 nM.

The molecule `Cc1cccc(-c2nc(O)nc(-c3cc(CNC(=O)C(C)(C)C)ccc3Cl)n2)c1` [Example 1-64] displayed an IC50 of 1.9 nM.

As to `CN(C)C(=O)CCc1ccc(Cl)c(-c2nc(O)nc(-c3ccc(OCC(C)(C)C)cc3)n2)c1` [Example 1-218], the IC50 stood at 70 nM.

Molecule `COc1ccc(-c2nc(O)nc(-c3c(C)cccc3C)n2)cc1` [Example 2-27] had an IC50 of 7700 nM.

`Cc1ccc(F)cc1-c1nc(O)nc(-c2ccc(C(F)(F)F)cc2)n1` [Example 1-1] returned an IC50 of 813 nM.

Turning to `CC(=O)NCc1ccc(Cl)c(-c2nc(O)nc(-c3ccc(C(F)(F)F)cc3)n2)c1C` [Example 3-7], the IC50 stood at 19 nM.

As for `CCS(=O)(=O)NCc1ccc(Cl)c(-c2nc(O)nc(-c3ccc(C(F)(F)F)cc3)n2)c1` [Example 1-31], half-maximal inhibition (IC50) was put at 1 nM.

`CC1(C)CCC(Oc2ccc(-c3nc(O)nc(-c4c(Cl)cccc4OCc4ccccn4)n3)cc2)CC1` [Example 2-84] yielded an IC50 of 17 nM.

As for `Cc1cccc(COc2cccc(Cl)c2-c2nc(O)nc(-c3ccc(C(F)(F)F)cc3)n2)c1` [Example 2-55], the IC50 is 10 nM.

The molecule `O=S(=O)(NCc1ccc(Cl)c(-c2nc(O)nc(-c3ccc(C(F)(F)F)cc3)n2)c1)C1CCCC1` [Example 1-42] yielded an IC50 of 1 nM.

The molecule `CCC1(COc2ccc(-c3nc(O)nc(-c4cc(CNC(=O)C(C)(C)C(F)(F)F)ccc4Cl)n3)cc2)COC1` [Example 1-145] registered an IC50 of 0.5 nM.

For the molecule `Cc1cccc(C)c1-c1nc(O)nc(-c2ccc(Cl)cc2)n1` [Example 2-25], half-maximal inhibition (IC50) was put at 249 nM.

In turn, `O=C(NCc1ccc(Cl)c(-c2nc(O)nc(-c3ccccc3)n2)c1)C12CC3CC(CC(C3)C1)C2` [Example 1-65] came in with an IC50 of 8.6 nM.

Turning to `CC(C)(C)C(=O)NCc1ccc(Cl)c(-c2nc(O)nc(-c3cccc(C(F)(F)F)c3)n2)c1` [Example 1-54], half-maximal inhibition (IC50) required 0.9 nM.

In turn, `Cc1ccc(Cl)c(-c2nc(O)nc(-c3ccc(C(F)(F)F)cc3)n2)c1OCCO` [Example 3-9] came in with an IC50 of 776 nM. Against the preceding molecule, the IC50 is about 860-fold higher.

Regarding `CCC(CC)C(=O)NCc1ccc(Cl)c(-c2nc(O)nc(-c3ccc(OCC4CC4)cc3)n2)c1` [Example 1-171], half-maximal inhibition (IC50) required 0.5 nM. This IC50 is about 1600-fold lower than that of the molecule before.

Still in this test, the particulars now being: at 30 μM test article.
In the case of `Cc1ccc(C(N)=O)cc1-c1nc(O)nc(-c2ccc(C(F)(F)F)cc2)n1` [Example 1-11], testing at 30 µM gave an inhibition of 42%.
